Results published in patent US20190364896A1, “SYNERGISTIC WEED CONTROL FROM APPLICATIONS OF PYRIDINE CARBOXYLIC ACID HERBICIDES AND ALS INHIBITORS” (Dow AgroSciences LLC, priority 2014, published 2019).
Where two headings read alike, the source gives them in different places.

Assays:
[1] = tested on: winter rape (Brassica napus, BRSNW); assay: Postemergence herbicidal activity, greenhouse trial (visual injury 0-100%); assay type: in vivo
[2] = tested on: brown mustard (Brassica juncea, BRSJU); assay: as above; assay type: in vivo; conditions: bensulfuron 17.5 g ai/ha
[3] = tested on: wild pansy (Viola tricolor, VIOTR); assay: as above; assay type: in vivo; conditions: Viola tricolor, post-emergence, read-out: % visual injury Obs
Outline: (§1)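 Greenhouse postemergence test, ~23 °C day, 22 °C night. Two-way combinations were sprayed at 187 L/ha in 1.5% v/v crop oil concentrate, and percent injury was scored visually after 20-22 d.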

[4] = tested on: sunflower (Helianthus annuus, HELAN); assay: as above; assay type: in vivo
[5] = tested on: kochia (Kochia scoparia, KCHSC); assay: as above; assay type: in vivo
Outline: as §1

[6] = tested on: pigweed (Amaranthus retroflexus, AMARE); assay: as above; assay type: in vivo
Outline: as §1

[7] = tested on: common lambsquarters (Chenopodium album L., CHEAL); assay: as above; assay type: in vivo
Outline: as §1

[8] = tested on: ivyleaf morning-glory (Ipomoea hederacea, IPOHE); assay: as above; assay type: in vivo
Outline: as §1

maize (Zea mays, ZEAMX) = assay: Postemergence crop injury (phytotoxicity), greenhouse trial (visual injury 0-100%)
Protocol: (§2) Seeds of the desired test plant species were planted in Sun Gro MetroMix® 306 planting mixture, which typically has a pH of 6.0 to 6.8 and an organic matter content of about 30 percent, in plastic pots with a surface area of 103.2 square centimeters (cm^2). […] The plants were grown for 7-36 days (d) in a greenhouse with an approximate 14-hour (h) photoperiod which was maintained at about 23° C. during the day and 22° C. during the night. Nutrients and water were added on a regular basis and supplemental lighting was provided with overhead metal halide 1000-Watt lamps as necessary. The plants were employed for testing when they reached the second or third true leaf stage.
(§3) Weighed amounts of technical or formulated material (emulsifiable concentrate (EC) or soluble concentrate (SL)) were dissolved in a volume of 97:3 volume per volume (v/v) acetone/dimethyl sulfoxide (DMSO) to stock solutions. […] The concentrated stock solutions were diluted with an aqueous mixture of 1.5% v/v of Agri-dex crop oil concentrate to provide the appropriate application rates. Compound requirements are based upon a 12 milliliter (mL) application volume at a rate of 187 liters per hectare (L/ha). Spray solutions of the experimental compound mixtures were prepared by adding the stock solutions to the appropriate amount of dilution solution to form a 12 mL spray solution in two-way combinations. Formulated compounds were applied to the plant material with an overhead Mandel track sprayer equipped with 8002E nozzles calibrated to deliver 187 L/ha over an application area of 0.503 square meters (m^2) at a spray height of 18 inches (43 centimeters (cm)) above average plant canopy. Control plants were sprayed in the same manner with the solvent blank. Application rates for component (a) are in g ae/ha, and application rates for component (b) are in g ai/ha.
(§4) The treated plants and control plants were placed in a greenhouse as described above and watered by sub-irrigation to prevent wash-off of the test compounds. After 20-22 d, the condition of the test plants as compared with that of the control plants was determined visually and scored on a scale of 0 to 100 percent where 0 corresponds to no injury and 100 corresponds to complete kill. The condition of the test plants was compared with that of the control plants as determined visually and scored on a scale of 0 to 100 percent, where 0 corresponds to no injury and 100 corresponds to complete kill. Colby's equation was used to determine the herbicidal effects expected from the mixtures.
(§5) Compound 1 was formulated as an EC and was combined with florasulam, cloransulam, diclosulam, flumetsulam, penoxsulam, or pyroxsulam. Compound 2 was formulated as an EC and was combined with florasulam or pyroxsulam. The mixtures were applied to winter wheat (TRZAW), common rice (ORYSA), maize (ZEAMX), and the phytotoxicity of the herbicidal compositions was measured. In addition, the efficacy of the herbicidal compositions on blackgrass (Alopecurus myosuroides, ALOMY), pigweed (Amaranthus retrollexus, AMARE), wild oat (Avena fatua, AVEFA), common lambsquarters (Chenopodium album L., CHEAL), thistle (Cirsium arvense CIRAR), nutsedge (Cyperus esculentus, CYPES), barnyardgrass (Echinochloa crus-galli, ECHCG), poinsettia (Euphorbia heterophylla, EPHHL), ivyleaf morning-glory (Ipomoea hederacea, IPOHE), kochia (Kochia scoparia, KCHSC), wild buckwheat (Polygonum convolvulus, POLCO), grain sorghum (Sorghum vulgare, SORVU), chickweed (Stellaria media, STEME), wild pansy (Viola tricolor, VIOTR), was evaluated.
(§6) Weighed amounts of technical material were dissolved in a volume of 97:3 volume per volume (v/v) acetone/dimethyl sulfoxide (DMSO) to stock solutions. […] The concentrated stock solutions were diluted with an aqueous mixture of 1.5% v/v of Agri-dex crop oil concentrate to provide the appropriate application rates. Compound requirements are based upon a 12 milliliter (mL) application volume at a rate of 187 liters per hectare (L/ha). […]

[9] = tested on: common rice (Oryza sativa, ORYSA); assay: as above
Protocol: as §2, §3, §4, §5, §6

[10] = tested on: winter wheat (Triticum aestivum, TRZAW); assay: as above
Protocol: as §2
as §3, with “technical” for “technical or formulated”, “material” for “material (emulsifiable concentrate (EC) or soluble concentrate (SL))”
as §4
Compound 2 was combined with florasulam and applied to winter wheat (TRZAW) and the phytotoxicity of the herbicidal composition was measured. In addition, the efficacy of the herbicidal composition on poinsettia (Euphorbia heterophylla, EPHHL) and […] (Cyperus esculentus, CYPES) was evaluated.
as §6, with “technical or formulated” for “technical”, “material (emulsifiable concentrate (EC) or soluble concentrate (SL))” for “material”, “(L/ha). Spray solutions of the experimental compound mixtures were prepared by adding the stock solutions to the appropriate amount of dilution solution to form a 12 mL spray solution in two-way combinations.” for “(L/ha).”

[11] = tested on: poinsettia (Euphorbia heterophylla, EPHHL); assay: Postemergence herbicidal activity, greenhouse trial (visual injury 0-100%); assay type: in vivo
Outline: (§7)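 Greenhouse-grown plants at the second to third true leaf stage were sprayed with two-way mixtures in 1.5% v/v Agri-dex crop oil concentrate at 187 L/ha; rates in g ae/ha for component (a) and g ai/ha for component (b). Injury scored visually 0–100% versus solvent-blank controls after 20–22 d, with expected mixture effects from Colby's equation.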

[12] = tested on: nutsedge (Cyperus esculentus, CYPES); assay: as above; assay type: in vivo; conditions: Cyperus, post-emergence, read-out: % visual injury Obs
Outline: as §7

[13] = tested on: wild buckwheat (Polygonum convolvulus, POLCO); assay: as above; assay type: in vivo; conditions: Fallopia convolvulus, post-emergence, 11.2 g ai/ha; read-out: % visual injury Obs
Outline: as §1

[14] = tested on: thistle (Cirsium arvense, CIRAR); assay: as above; assay type: in vivo; conditions: Cirsium arvense, post-emergence, read-out: % visual injury Obs
Outline: as §1

[15] = tested on: spring rape (Brassica napus, BRSNN); assay: as above; assay type: in vivo; conditions: 11.2 g ai/ha
[16] = tested on: turnip (Brassica rapa, BRSRR); assay: as above; assay type: in vivo; conditions: 11.2 g ai/ha
Protocol: as §2
as §3, with “technical” for “technical or formulated”, “material” for “material (emulsifiable concentrate (EC) or soluble concentrate (SL))”
as §4
(§8) Compound 1 was formulated as an EC and was combined with imazamox, imazamethabenz, imazapic, imazapyr or imazethapyr. The mixtures were applied to winter wheat (TRZAW) and/or maize (ZEAMX), and the phytotoxicity of the herbicidal compositions was measured. In addition, the efficacy of the herbicidal compositions on blackgrass (Alopecurus myosuroides, ALOMY), wild oat (Avena fatua, AVEFA), winter rape (Brassica napus, BRSNW), spring rape (Brassica napus, BRSNN), turnip (Brassica rapa, BRSRR), thistle (Cirsium arvense, CIRAR), large crabgrass (Digitaria sanguinalis, DIGSA), pigweed (Amaranthus retrollexus, AMARE), common lambsquarters (Chenopodium album L., CHEAL), poinsettia (Euphorbia heterophylla, EPHHL), ivyleaf morning-glory (Ipomoea hederacea, IPOHE), kochia (Kochia scoparia, KCHSC), wild buckwheat (Polygonum convolvulus, POLCO), grain sorghum (Sorghum vulgare, SORVU), chickweed (Stellaria media, STEME), wild pansy (Viola tricolor, VIOTR), sunflower (Helianthus annuus, HELAN), giant foxtail (Setaria faberi, SETFA), soybean (Glycine max, GLXMA), rutabaga (Brassica napus var. napobrassica, BRSNA) and barnyardgrass (Echinochloa crus-galli, ECHCG) was evaluated.

[17] = tested on: barnyardgrass (Echinochloa crus-galli, ECHCG); assay: as above; assay type: in vivo
Outline: as §1

[18] = tested on: wild oat (Avena fatua, AVEFA); assay: as above; assay type: in vivo
Outline: as §1

[19] = tested on: blackgrass (Alopecurus myosuroides, ALOMY); assay: as above; assay type: in vivo; conditions: 17.5 g ai/ha
Outline: as §1

[20] = tested on: rutabaga (Brassica napus var. napobrassica, BRSNA); assay: as above; assay type: in vivo; conditions: 17.5 g ai/ha
Protocol: as §2
as §3, with “technical” for “technical or formulated”, “material” for “material (emulsifiable concentrate (EC) or soluble concentrate (SL))”
as §4, §8

[21] = tested on: large crabgrass (Digitaria sanguinalis, DIGSA); assay: as above; assay type: in vivo; conditions: 17.5 g ai/ha
[22] = tested on: chickweed (Stellaria media, STEME); assay: as above; assay type: in vivo; conditions: 100 g ai/ha
Outline: as §1

[23] = tested on: grain sorghum (Sorghum vulgare, SORVU); assay: as above; assay type: in vivo; conditions: 100 g ai/ha
Outline: as §1

[24] = tested on: soybean (Glycine max, GLXMA); assay: as above; assay type: in vivo; conditions: 100 g ai/ha
Protocol: as §2
as §3, with “technical” for “technical or formulated”, “material” for “material (emulsifiable concentrate (EC) or soluble concentrate (SL))”
as §4, §8

## COC(=O)c1ccccc1CS(=O)(=O)NC(=O)Nc1nc(OC)cc(OC)n1
[1]; BRSNW, bensulfuron 17.5 g ai/ha
  % visual injury Obs: 70%
[2]
  % visual injury Obs: 93%
[3]; VIOTR, bensulfuron 17.5 g ai/ha
  pest or weed control at 17.5 g/ha: 0%
[4]; HELAN, bensulfuron 17.5 g ai/ha
  % visual injury Obs: 10%

## COc1ncc(F)c2nc(S(=O)(=O)Nc3c(F)cccc3F)nn12 [Florasulam, florasulam]
[5]; Bassia scoparia, post-emergence, read-out: % visual injury Obs
  pest or weed control at 2.5 g/ha: 60%
[6]; Amaranthus retroflexus, post-emergence, read-out: % visual injury Obs
  pest or weed control at 1.25 g/ha: 75%
[7]; Chenopodium album, post-emergence, read-out: % visual injury Obs
  pest or weed control at 1.25 g/ha: 0%
[8]; Ipomoea hederacea, post-emergence, read-out: % visual injury Obs
  pest or weed control at 1.25 g/ha: 98%
Maize (Zea mays, ZEAMX); 1.25 g ai/ha
  % visual injury Obs: 0%
Maize (Zea mays, ZEAMX); 2.5 g ai/ha
  % visual injury Obs: 0%
[9]; 1.25 g ai/ha
  % visual injury Obs: 0%
[9]; 2.5 g ai/ha
  % visual injury Obs: 0%
[10]; 1.25 g ai/ha
  % visual injury Obs: 0%
[10]; 2.5 g ai/ha
  % visual injury Obs: 0%
[11]; Euphorbia heterophylla, post-emergence, read-out: % visual injury Obs
  pest or weed control at 1.25 g/ha: 0%
[12]
  pest or weed control at 1.25 g/ha: 15%
  pest or weed control at 2.5 g/ha: 75%

## COCc1cnc(C2=NC(C)(C(C)C)C(=O)N2)c(C(=O)O)c1 (centres unmarked) [Imazamox, imazamox]
[13]
  pest or weed control at 11.2 g/ha: 65%
[14]; 11.2 g ai/ha
  pest or weed control at 11.2 g/ha: 70%
[15]
  % visual injury Obs: 75%
[16]
  % visual injury Obs: 70%

## CCc1cnc(C2=NC(C)(C(C)C)C(=O)N2)c(C(=O)O)c1 (centres unmarked) [Imazethapyr, imazethapyr]
[14]; 17.5 g ai/ha
  pest or weed control at 17.5 g/ha: 30%
[1]; 17.5 g ai/ha
  % visual injury Obs: 75%
[17]; Echinochloa crus-galli, post-emergence, 17.5 g ai/ha, read-out: % visual injury Obs
  pest or weed control at 17.5 g/ha: 70%
[18]; 17.5 g ai/ha
  % visual injury Obs: 10%
[19]
  % visual injury Obs: 10%
[3]; 17.5 g ai/ha
  pest or weed control at 17.5 g/ha: 5%
[20]
  % visual injury Obs: 20%
[21]
  % visual injury Obs: 30%

## imazamethabenz
[5]; 100 g ai/ha
  % visual injury Obs: 0%
[6]; 100 g ai/ha
  % visual injury Obs: 0%
[1]; 100 g ai/ha
  % visual injury Obs: 65%
[22]
  % visual injury Obs: 10%
[17]; 100 g ai/ha
  % visual injury Obs: 5%
[7]; 100 g ai/ha
  % visual injury Obs: 20%
[8]; 100 g ai/ha
  % visual injury Obs: 0%
[18]; 100 g ai/ha
  % visual injury Obs: 20%
[23]
  % visual injury Obs: 0%
[11]; 100 g ai/ha
  % visual injury Obs: 50%
[24]
  % visual injury Obs: 30%
[4]; 100 g ai/ha
  % visual injury Obs: 5%
